In patent US20070197599A1, “HYDROXYLAMINES AND DERIVATIVES AS ANTI-ANGIOGENIC AGENTS” (priority 2006, published 2007):
Where two headings read alike, the source gives them in different places.

What was measured:
[1] = In vitro stability of Compound 1 in dog plasma; assay type: in vitro ADME; settings: for Concentration of Compound 1 in plasma: 1000 ng/mL added; for half-life at 1000 ng/mL: dog, pooled dog plasma
Experimental: (§1) The active metabolite of Compound 1 (Cyclopropanecarboxylic acid 1-hydroxy-2,2,6,6-tetramethyl-piperidin-4-yl ester) is TPH. The objective of this analysis was to determine the in vitro half-life of Compound 1 in rat, rabbit, dog, and human plasma under standardized incubation conditions.
(§2) Compound 1 was incubated with pooled rat, rabbit, dog, and human plasma for various times under standardized incubation conditions. Pre-labeled tubes containing pooled plasma from rats, rabbits, dogs, and humans were pre-incubated in a shaking 37° C. water bath. A Compound 1 solution was added to the tubes at a final concentration of 1000 ng/mL. Time zero samples (n=5) were immediately removed and transferred into tubes containing a stabilizer solution (DTPA, acetylcysteine and ascorbic acid), the LC/MS/MS assay internal standard and methanol. […] The tubes were vortexed, placed on ice, followed by centrifugation. One hundred-μL aliquots of the supernatant were transferred into HPLC sample vials. Additional tubes (n=5 at each time point) were incubated for 5, 10, 20, 30, 60, 120, and 240 minutes at 37° C. and thereafter processed. The amount of Compound 1 and TPH in each incubated sample was quantified using validated LC/MS/MS assays.

[2] = In vitro stability of Compound 1 in rabbit plasma; assay type: in vitro ADME; settings: for Concentration of Compound 1 in plasma: 1000 ng/mL added; for half-life at 1000 ng/mL: rabbit, pooled rabbit plasma
Experimental: as §1, §2

[3] = In vitro stability of Compound 1 in rat plasma; assay type: in vitro ADME; settings: for Concentration of Compound 1 in plasma: 1000 ng/mL added; for half-life at 1000 ng/mL: rat, pooled rat plasma
Experimental: as §1, §2

[4] = In vitro stability of Compound 1 in human plasma; assay type: in vitro ADME; settings: for Concentration of Compound 1 in plasma: 1000 ng/mL added; for half-life at 1000 ng/mL: human, pooled human plasma
Experimental: as §1, §2

[5] = Single-dose 10-minute intravenous infusion toxicokinetics in Sprague-Dawley rats; assay type: in vivo; settings: for Cmax: in vivo, read-out: Cmax of Compound 1; for Cmax / Tmax: 10-minute iv infusion; for concentration at 0.167 hr: 0.167 hr from start of infusion; for Tmax: read-out: Tmax of Compound 1
Experimental: Blood for toxicokinetic evaluations was collected at pre-determined time points during and after the infusion.
All pharmacokinetic analyses were performed using Kinetica®, version 4.2 (Innaphase, Philadelphia, Pa.).
Cmax is the observed maximum plasma concentration
Tmax is the time Cmax is reached
T1/2 is the elimination half-life
The plasma concentrations were rounded to the nearest tenth of a ng/mL before the calculations. […] Nominal time points were used for all calculations.

[6] = average, read-out: in vitro half-life

Structure (SMILES): CC1(C)CC(OC(=O)C2CC2)CC(C)(C)N1O.Cl [Compound 1, 1-hydroxy-4-cyclopropanecarbonyloxy-2,2,6,6-tetramethylpiperidine hydrochloride]
- Concentration of Compound 1 in plasma ([1]; 37° C., incubation 0 min): 771.12 ± 21.68 ng/mL
- Concentration of Compound 1 in plasma ([1]; 37° C., incubation 5 min): 804.93 ± 17.45 ng/mL
- Concentration of Compound 1 in plasma ([1]; 37° C., incubation 10 min): 811.14 ± 21.06 ng/mL
- Concentration of Compound 1 in plasma ([1]; 37° C., incubation 20 min): 809.01 ± 18.58 ng/mL
- Concentration of Compound 1 in plasma ([1]; 37° C., incubation 30 min): 789.53 ± 13.73 ng/mL
- Concentration of Compound 1 in plasma ([1]; 37° C., incubation 60 min): 717.22 ± 25.73 ng/mL
- Concentration of Compound 1 in plasma ([1]; 37° C., incubation 120 min): 608.14 ± 25.96 ng/mL
- Concentration of Compound 1 in plasma ([1]; 37° C., incubation 240 min): 428.20 ± 12.03 ng/mL
- half-life at 1000 ng/mL ([1]; average, read-out: in vitro half-life (converted)): 240 min
- half-life at 1000 ng/mL ([1]; in vitro, 37° C., read-out: T½): 240 min
- Concentration of Compound 1 in plasma ([2]; 37° C., incubation 0 min): 502.75 ± 74.66 ng/mL
- Concentration of Compound 1 in plasma ([2]; 37° C., incubation 5 min): 14.56 ± 3.35 ng/mL
- Concentration of Compound 1 in plasma ([2]; 37° C., incubation 10 min): 0.00 ± 0.00 ng/mL
- Concentration of Compound 1 in plasma ([2]; 37° C., incubation 20 min): 0.00 ± 0.00 ng/mL
- Concentration of Compound 1 in plasma ([2]; 37° C., incubation 30 min): 0.00 ± 0.00 ng/mL
- Concentration of Compound 1 in plasma ([2]; 37° C., incubation 60 min): 0.00 ± 0.00 ng/mL
- Concentration of Compound 1 in plasma ([2]; 37° C., incubation 120 min): 0.00 ± 0.00 ng/mL
- Concentration of Compound 1 in plasma ([2]; 37° C., incubation 240 min): 0.00 ± 0.00 ng/mL
- half-life at 1000 ng/mL [2, 6]: 1 min
- half-life at 1000 ng/mL ([2]; in vitro, 37° C., read-out: T½): 0.98 min
- Concentration of Compound 1 in plasma ([3]; 37° C., incubation 0 min): 806.50 ± 86.77 ng/mL
- Concentration of Compound 1 in plasma ([3]; 37° C., incubation 5 min): 770.32 ± 20.66 ng/mL
- Concentration of Compound 1 in plasma ([3]; 37° C., incubation 10 min): 745.77 ± 15.50 ng/mL
- Concentration of Compound 1 in plasma ([3]; 37° C., incubation 20 min): 682.88 ± 16.94 ng/mL
- Concentration of Compound 1 in plasma ([3]; 37° C., incubation 30 min): 613.79 ± 25.84 ng/mL
- Concentration of Compound 1 in plasma ([3]; 37° C., incubation 60 min): 480.48 ± 10.69 ng/mL
- Concentration of Compound 1 in plasma ([3]; 37° C., incubation 120 min): 277.94 ± 5.55 ng/mL
- Concentration of Compound 1 in plasma ([3]; 37° C., incubation 240 min): 80.70 ± 2.02 ng/mL
- half-life at 1000 ng/mL [3, 6]: 70 min
- half-life at 1000 ng/mL ([3]; in vitro, 37° C., read-out: T½): 69.5 min
- Concentration of Compound 1 in plasma ([4]; 37° C., incubation 0 min): 775.47 ± 22.50 ng/mL
- Concentration of Compound 1 in plasma ([4]; 37° C., incubation 5 min): 593.43 ± 7.55 ng/mL
- Concentration of Compound 1 in plasma ([4]; 37° C., incubation 10 min): 503.18 ± 20.90 ng/mL
- Concentration of Compound 1 in plasma ([4]; 37° C., incubation 20 min): 394.69 ± 6.72 ng/mL
- Concentration of Compound 1 in plasma ([4]; 37° C., incubation 30 min): 316.37 ± 7.67 ng/mL
- Concentration of Compound 1 in plasma ([4]; 37° C., incubation 60 min): 162.41 ± 9.77 ng/mL
- Concentration of Compound 1 in plasma ([4]; 37° C., incubation 120 min): 32.22 ± 2.63 ng/mL
- Concentration of Compound 1 in plasma ([4]; 37° C., incubation 240 min): 0.00 ± 0.00 ng/mL
- half-life at 1000 ng/mL [4, 6]: 28 min
- half-life at 1000 ng/mL ([4]; in vitro, 37° C., read-out: T½): 27.8 min
- plasma level of Compound 1 at one hour after termination of the infusion ([5]; 10 mg/kg): not quantifiable
- Cmax ([5]; both sexes, Sprague-Dawley, rat, 10 mg/kg): 980 ng/mL
- Cmax ([5]; both sexes, Sprague-Dawley, rat, 30 mg/kg): 3490 ng/mL
- Cmax ([5]; both sexes, Sprague-Dawley, rat, 100 mg/kg): 29000 ng/mL
- Cmax ([5]; both sexes, Sprague-Dawley, rat, 200 mg/kg): 89700 ng/mL
- concentration at 0.167 hr ([5]; both sexes, Sprague-Dawley, rat, plasma, 10 mg/kg iv infusion, read-out: Plasma concentration of Compound 1): 980 ± 311 ng/mL
- concentration at 1.167 hr ([5]; both sexes, Sprague-Dawley, rat, plasma, 10 mg/kg iv infusion, 1.167 hr, below 50 ng/mL assigned zero, read-out: Plasma concentration of Compound 1): 0 ng/mL
- concentration at 2.167 hr ([5]; both sexes, Sprague-Dawley, rat, plasma, 10 mg/kg iv infusion, 2.167 hr, below 50 ng/mL assigned zero, read-out: Plasma concentration of Compound 1): 0 ng/mL
- concentration at 4.167 hr ([5]; both sexes, Sprague-Dawley, rat, plasma, 10 mg/kg iv infusion, below 50 ng/mL assigned zero, read-out: Plasma concentration of Compound 1): 0 ng/mL
- Tmax ([5]; both sexes, Sprague-Dawley, rat, plasma, 10 mg/kg): 10 min
- concentration at 0.167 hr ([5]; both sexes, Sprague-Dawley, rat, plasma, 30 mg/kg iv infusion, read-out: Plasma concentration of Compound 1): 3490 ± 809 ng/mL
- concentration at 4.167 hr ([5]; both sexes, Sprague-Dawley, rat, plasma, 30 mg/kg iv infusion, below 50 ng/mL assigned zero, read-out: Plasma concentration of Compound 1): 0 ng/mL
- Tmax ([5]; both sexes, Sprague-Dawley, rat, plasma, 30 mg/kg): 10 min
- concentration at 0.167 hr ([5]; both sexes, Sprague-Dawley, rat, plasma, 100 mg/kg iv infusion, read-out: Plasma concentration of Compound 1): 29000 ± 15100 ng/mL
- concentration at 4.167 hr ([5]; both sexes, Sprague-Dawley, rat, plasma, 100 mg/kg iv infusion, below 50 ng/mL assigned zero, read-out: Plasma concentration of Compound 1): 0 ng/mL
- Tmax ([5]; both sexes, Sprague-Dawley, rat, plasma, 100 mg/kg): 10 min
- concentration at 0.167 hr ([5]; both sexes, Sprague-Dawley, rat, plasma, 200 mg/kg iv infusion, read-out: Plasma concentration of Compound 1): 89700 ± 18100 ng/mL
- concentration at 4.167 hr ([5]; both sexes, Sprague-Dawley, rat, plasma, 200 mg/kg iv infusion, below 50 ng/mL assigned zero, read-out: Plasma concentration of Compound 1): 0 ng/mL
- Tmax ([5]; both sexes, Sprague-Dawley, rat, plasma, 200 mg/kg): 10 min
- clearance of Compound 1 in rats ([5]; suggested by the results, half-life not determinable): very rapid
- plasma levels of Compound 1 at four hours after termination of the infusion ([5]; three higher dosages of 30 to 200 mg/kg): not quantifiable
